Measured values as given in patent US9814787B2, “Luciferin amides” (University of Massachusetts, priority 2013, dated 2017).
Blank lines part the entries; values can stand above or below the compound they belong to.

Columns and labels:
[1] = biological target: T1, FAAH (Homo sapiens, UniProt O00519); test: In vitro FAAH assay: luciferin amide treated with recombinant FAAH, then R218K luciferase, bioluminescence; assay type: biochemical; conditions: 50 μM luciferin amide; for effect of ten-fold dilution of FAAH on bioluminescent signal: FAAH vs FAAH 1:10, one hour at room temperature; for increase in bioluminescence signal on addition of FAAH versus buffer: 10 minutes at room temperature, R218K luciferase 3 μg/mL
T1 construct: purchased Cayman Chemical
T1 sequence (O00519 1-579): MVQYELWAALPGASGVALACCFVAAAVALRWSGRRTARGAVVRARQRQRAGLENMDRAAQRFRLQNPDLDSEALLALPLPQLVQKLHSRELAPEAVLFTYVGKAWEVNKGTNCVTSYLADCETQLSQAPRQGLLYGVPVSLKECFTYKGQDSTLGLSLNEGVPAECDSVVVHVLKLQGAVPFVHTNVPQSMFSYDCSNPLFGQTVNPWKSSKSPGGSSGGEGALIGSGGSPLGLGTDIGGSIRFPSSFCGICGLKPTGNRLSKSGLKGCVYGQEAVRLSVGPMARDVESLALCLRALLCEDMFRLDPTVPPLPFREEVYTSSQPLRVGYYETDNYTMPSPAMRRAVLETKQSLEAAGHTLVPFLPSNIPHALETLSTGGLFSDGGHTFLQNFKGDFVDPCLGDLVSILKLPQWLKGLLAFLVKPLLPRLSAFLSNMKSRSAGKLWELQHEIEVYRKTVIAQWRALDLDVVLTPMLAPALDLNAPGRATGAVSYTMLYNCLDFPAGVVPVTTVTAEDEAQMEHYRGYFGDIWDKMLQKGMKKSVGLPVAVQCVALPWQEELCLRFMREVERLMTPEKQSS
Description: Recombinant FAAH, FAAH assay buffer, and FAAH inhibitors URB-597, PF-750, and PF-3845 were purchased from Cayman Chemical.
Bioluminescence assays were performed in either a Turner Veritas luminometer or a Xenogen IVIS-100 imaging system. For Veritas experiments, white 96-well plates were used (Costar 3912). For IVIS experiments, black 96-well plates were used (Costar 3915).
(§1) Luciferin amides (50 μM) were treated with FAAH and FAAH buffer (Cayman Chemical) in the presence or absence of 50 μM FAAH inhibitor URB-597 or 50 μM luciferase inhibitor 2-(4′-methoxyphenyl)benzothiazole. After 10 minutes at room temperature, R218K mutant firefly luciferase was added at a concentration of 3 μg/mL and bioluminescence was detected on a Turner Veritas luminometer.
(§2) Four luciferin amides (50 μM), i.e., Compounds 1, 9, 10, and 25, were treated with a buffer alone, a buffer containing FAAH, a buffer containing FAAH+50 μM URB-597 (i.e., a FAAH inhibitor), or a buffer containing FAAH+50 μM luciferase inhibitor 2-(4′-methoxyphenyl)benzothiazole. After 10 minutes at room temperature, R218K luciferase was added at a concentration of 3 μg/mL and bioluminescence was detected on a Turner Veritas.
(§3) Three luciferin amides (50 μM), i.e., Compounds 2, 9, and 25, were treated with a buffer alone, a buffer containing FAAH, a buffer containing FAAH 1:10 (i.e., a ten-fold dilution of FAAH), a buffer containing pig liver esterase (PLE), or a buffer containing PLE 1:10 (i.e., a ten-fold dilution of PLE). After one hour at room temperature, R218K luciferase was added at a concentration of 3 μg/mL and bioluminescence was detected on a Turner Veritas.

[2] = system: pig liver esterase (PLE); test: Treatment of luciferin amides with pig liver esterase, then R218K luciferase, bioluminescence; assay type: biochemical; conditions: 50 μM luciferin amide, PLE and PLE 1:10, one hour at room temperature
Description: as §3

[3] = biological target: T2, FAAH (Mus musculus, UniProt O08914); test: In vivo FAAH inhibition assay with PF-3845; design: species or system mice; conditions: for total photon flux, average: 0.1 mM (0.1 mL) IP; for change of light output by FAAH inhibitor PF-3845 (group 1 vs group 2): PF-3845 1 mg/mL (0.1 mL) IP 30 minutes before substrate
T2 construct: metabolized into CycLuc1 by endogenous FAAH activity; from tissue; host or cells: brain (striatum) of live FVB mice expressing AAV9-delivered luciferase
T2 sequence (O08914 1-579): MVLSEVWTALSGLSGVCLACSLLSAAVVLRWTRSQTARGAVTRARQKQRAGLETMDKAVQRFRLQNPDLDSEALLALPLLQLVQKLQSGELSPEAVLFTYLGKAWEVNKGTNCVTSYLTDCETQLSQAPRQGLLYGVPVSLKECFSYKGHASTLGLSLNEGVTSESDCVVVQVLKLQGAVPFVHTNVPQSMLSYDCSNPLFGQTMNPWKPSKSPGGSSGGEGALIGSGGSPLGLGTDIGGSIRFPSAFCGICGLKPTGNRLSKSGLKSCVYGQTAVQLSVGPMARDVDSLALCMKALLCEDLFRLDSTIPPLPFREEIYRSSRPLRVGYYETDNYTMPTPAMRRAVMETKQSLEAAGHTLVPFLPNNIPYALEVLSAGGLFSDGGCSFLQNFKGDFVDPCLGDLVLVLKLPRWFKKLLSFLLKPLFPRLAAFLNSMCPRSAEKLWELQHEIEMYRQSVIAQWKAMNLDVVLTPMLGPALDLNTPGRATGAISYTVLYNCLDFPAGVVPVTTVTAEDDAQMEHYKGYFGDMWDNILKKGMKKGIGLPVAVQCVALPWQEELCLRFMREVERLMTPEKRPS
Description: (§4) FVB mice were injected with AAV9-luc+ in the brain striatum. Bioluminescence assays were performed approximately nine months after AAV injection. Each luciferin amide was diluted into PBS to the indicated concentration from a 50 mM DMSO stock solution and filtered (0.22 μm) prior to intraperitoneally injection (0.1 mL per mouse). Mice were anesthetized with isoflurane (2% in 1 L/min oxygen) and images acquired on a Xenogen IVIS 100 imaging system and analyzed with Living Image software.
Mice were injected intraperitoneally with 1 mg/mL of a specific FAAH inhibitor PF-3845 dissolved in 18:1:1 PBS:ethanol:emulphor (0.1 mL), or with an equal volume of 18:1:1 PBS:ethanol:emulphor control vehicle. Thirty minutes after injection, the mice were imaged as described above.
FAAH is highly expressed in most tissues, particularly in the brain. To determine whether the luciferin amides are cleaved exclusively by FAAH in the brain tissue, eight FVB mice expressing AAV9-luciferase in the striatum were divided into two groups: (1) four mice were injected IP with 1 mg/mL of a specific FAAH inhibitor PF-3845 dissolved in 18:1:1 PBS:ethanol:emulphor (0.1 mL), and (2) four mice were treated with an equal volume of 18:1:1 PBS:ethanol:emulphor control vehicle without PF-3845. After 30 minutes, one mouse from each group was IP injected with 5 mM CycLuc1 (i.e., Compound 9's corresponding luciferin) in PBS (0.1 mL), and three were injected with 0.1 mM Compound 5 in 0.2% DMSO/PBS (0.1 mL). The mice were imaged 10 minutes after substrate injection. Mice in the right panel were group (1) (i.e., treated with a FAAH inhibitor) and mice in the left panel were from group (2) (i.e., without being treated with a FAAH inhibitor).

[4] = system: FVB mice expressing luciferase in brain tissue; test: In vivo bioluminescence imaging in brains of FVB mice injected with AAV9-luc+ in the striatum
Description: as §4
Certain luciferin amides described herein were tested to determine whether they would image well in live mice. For these studies, FVB mice were injected with adeno-associated virus 9 (AAV9)-luciferase constructs into the brain striatum.
Bioluminescence imaging (BLI) in the brain is more challenging than imaging in the rest of the organism, in part because a luciferase substrate (i.e., a luciferin) must cross the blood-brain barrier. Therefore, the ability of a synthetic luciferin (i.e., Compound 9's corresponding luciferin (CycLuc1)) to allow bioluminescence imaging in these mice, as compared to the native firefly luciferase substrate (i.e., D-luciferin) was first tested. Specifically, each substrate was injected intraperitoneally (IP) in PBS at a volume of 0.1 mL, D-luciferin being at a concentration of 100 mM and CycLuc1 being at a concentration of 5 mM. […] CycLuc1 was then injected at a 320-fold lower dose (0.06 mL of 0.5 mM) than D-luciferin.
Specifically, Compound 9 (i.e., CycLuc1 amide) was injected at 0.5 mM in 0.5% DMSO/PBS (0.06 mL).
In this figure, mice in the top row were treated with luciferin amides in the amounts indicated in the figure, and the mice in the bottom row were the same mice that were imaged one day later using a standard dose of D-luciferin.

[5] = biological target: R218K mutant firefly luciferase (Photinus pyralis, UniProt P08659, R218K); test: In vitro FAAH assay in presence of luciferase inhibitor 2-(4′-methoxyphenyl)benzothiazole; assay type: biochemical; conditions: 50 μM luciferase inhibitor, 50 μM luciferin amide
Chain of R218K mutant firefly luciferase (P08659 whole entry R218K): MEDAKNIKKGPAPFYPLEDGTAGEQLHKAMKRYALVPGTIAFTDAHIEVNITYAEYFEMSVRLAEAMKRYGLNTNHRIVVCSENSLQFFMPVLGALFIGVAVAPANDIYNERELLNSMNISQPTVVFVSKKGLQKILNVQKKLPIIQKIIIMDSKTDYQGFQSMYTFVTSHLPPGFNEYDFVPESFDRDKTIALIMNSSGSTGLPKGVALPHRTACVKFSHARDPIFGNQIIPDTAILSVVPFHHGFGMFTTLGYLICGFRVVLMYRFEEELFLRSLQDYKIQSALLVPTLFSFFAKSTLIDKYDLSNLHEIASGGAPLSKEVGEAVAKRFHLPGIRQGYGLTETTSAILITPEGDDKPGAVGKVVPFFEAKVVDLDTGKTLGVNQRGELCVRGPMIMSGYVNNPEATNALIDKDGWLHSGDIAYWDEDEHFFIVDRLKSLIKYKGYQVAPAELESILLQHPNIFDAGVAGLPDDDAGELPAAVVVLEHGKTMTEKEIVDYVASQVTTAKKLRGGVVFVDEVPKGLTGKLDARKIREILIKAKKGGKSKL
Description: as §1
as §2, with “Veritas. […] These bioluminescence signals were inhibited by more than 100-fold by treatment with the FAAH inhibitor URB-597.” for “Veritas.”

[6] = 0.06 mL of 0.5 mM in 0.5% DMSO/PBS

SMILES: CN(C)c1ccc2nc(C3=N[C@@H](C(N)=O)CS3)sc2c1 [Compound 2, (S)-2-(6-(dimethylamino)benzo[d]thiazol-2-yl)-4,5-dihydrothiazole-4-carboxamide]
- effect of ten-fold dilution of FAAH on bioluminescent signal [1]: corresponding reduction in the intensity of the bioluminescent signal
- bioluminescence signal after treatment with PLE [2]: failed to elicit a bioluminescence signal

- total photon flux, average ([3]; group (1) treated with PF-3845): 4.4×10^4 p/s
- total photon flux, average ([3]; group (2) vehicle without PF-3845): 1.3×10^7 p/s
SMILES: CC(C)Nc1ccc2nc(C3=N[C@@H](C(N)=O)CS3)sc2c1 [Compound 5, (S)-4,5-dihydro-2-(6-(isopropylamino)-benzo[d]thiazol-2-yl)thiazole-4-carboxamide]
- change of light output by FAAH inhibitor PF-3845 (group 1 vs group 2) [3]: reduced by nearly three orders of magnitude
- Photon flux after treatment with luciferin analogs ([4]; 4 μM): 2.97E+05 p/s
- signal as share of the D-luciferin signal ([4]; 4 μM, 25,000-fold lower dose): ~30%
- Photon flux after treatment with luciferin analogs ([4]; 20 μM): 1.95E+06 p/s
- Photon flux after treatment with luciferin analogs ([4]; 100 μM): 7.84E+06 p/s
- Photon flux after treatment with luciferin analogs ([4]; 500 μM): 1.19E+07 p/s
- photon flux relative to standard 100 mM D-luciferin ([4]; IP, 20 μM, 5000-fold lower dose): higher photon flux than the standard 100 mM D-luciferin
- bioluminescence signal higher than standard D-luciferin imaging conditions ([4]; doses 200-fold and 1000-fold lower than standard D-luciferin dose): 5 fold

SMILES: NC(=O)[C@H]1CSC(c2nc3cc4c(cc3s2)NCC4)=N1 [Compound 9, (S)-4,5-dihydro-2-(6,7-dihydro-5H-thiazolo[4,5-f]indol-2-yl)thiazole-4-carboxamide]
- inhibition of the signal by luciferase inhibitor 2-(4′-methoxyphenyl)benzothiazole [5]: 2.3 fold
- increase in bioluminescence signal on addition of FAAH versus buffer [1]: 8972 fold
- effect of ten-fold dilution of FAAH on bioluminescent signal [1]: corresponding reduction in the intensity of the bioluminescent signal
- light emission relative to an equivalent dose of CycLuc1 [4, 6]: exceeded that obtained from an equivalent dose of CycLuc1 itself
- light emission relative to the 5 mM CycLuc1 dose [4, 6]: nearly equaling to the light emission obtained from the 5 mM CycLuc1 dose
- brain bioluminescence signal relative to D-luciferin (0.1 mL of 100 mM) ([4]; 0.06 mL of 0.5 mM, 320-fold lower dose): over an order of magnitude greater
- bioluminescence signal after treatment with PLE [2]: failed to elicit a bioluminescence signal

SMILES: NC(=O)[C@H]1CSC(c2nc3ccc(O)cc3s2)=N1 [Compound 25, (S)-4,5-dihydro-2-(6-hydroxybenzothiazol-2-yl)thiazole-4-carboxamide]
- inhibition of the signal by luciferase inhibitor 2-(4′-methoxyphenyl)benzothiazole [5]: 14.5 fold
- increase in bioluminescence signal on addition of FAAH versus buffer [1]: 269 fold
- effect of ten-fold dilution of FAAH on bioluminescent signal [1]: corresponding reduction in the intensity of the bioluminescent signal
- light emission in brains of live mice (qualitative) ([4]; mouse, in vivo): relatively weak light emission
- bioluminescence signal after treatment with PLE [2]: failed to elicit a bioluminescence signal

- total photon flux ([3]; 5 mM in PBS (0.1 mL) IP, groups (1) PF-3845 and (2) vehicle, 10 minutes after substrate): 9×10^6 p/s
- change of light output by FAAH inhibitor PF-3845 (group 1 vs group 2) [3]: unchanged
SMILES: O=C(O)[C@H]1CSC(c2nc3cc4c(cc3s2)NCC4)=N1 [CycLuc1, reference compound]
- persistence of signal relative to D-luciferin ([4]; 0.06 mL of 0.5 mM): persisted for a longer time
- duration of signal ([4]; IP, 0.1 mL of 5 mM): over 2 hours
- time of peak signal ([4]; IP, 0.1 mL of 5 mM): ~10 min
- brain bioluminescence signal relative to D-luciferin (0.1 mL of 100 mM) ([4]; IP, 0.1 mL of 5 mM in PBS, 20-fold lower dose): an order of magnitude higher signal than D-luciferin
